Test results: US12421224B2 (BIOGEN MA INC., priority 2019, dated 2025)
pIC50: −log10 of the molar value.

What follows are molecules tested against T1, Recombinant full length human OGA enzyme (Homo sapiens, UniProt O60502) (assay: OGA Enzyme Inhibition Biochemical Assay). Settings: 1 nM OGA, 100 μM 4-MUGlcNAc (Km), pH 6.4, 90 minutes at room temperature, 10-point dose-response starting from 20 μM.
T1 construct: Recombinant full length human OGA enzyme; purchased Origene
T1 sequence (O60502 1-916): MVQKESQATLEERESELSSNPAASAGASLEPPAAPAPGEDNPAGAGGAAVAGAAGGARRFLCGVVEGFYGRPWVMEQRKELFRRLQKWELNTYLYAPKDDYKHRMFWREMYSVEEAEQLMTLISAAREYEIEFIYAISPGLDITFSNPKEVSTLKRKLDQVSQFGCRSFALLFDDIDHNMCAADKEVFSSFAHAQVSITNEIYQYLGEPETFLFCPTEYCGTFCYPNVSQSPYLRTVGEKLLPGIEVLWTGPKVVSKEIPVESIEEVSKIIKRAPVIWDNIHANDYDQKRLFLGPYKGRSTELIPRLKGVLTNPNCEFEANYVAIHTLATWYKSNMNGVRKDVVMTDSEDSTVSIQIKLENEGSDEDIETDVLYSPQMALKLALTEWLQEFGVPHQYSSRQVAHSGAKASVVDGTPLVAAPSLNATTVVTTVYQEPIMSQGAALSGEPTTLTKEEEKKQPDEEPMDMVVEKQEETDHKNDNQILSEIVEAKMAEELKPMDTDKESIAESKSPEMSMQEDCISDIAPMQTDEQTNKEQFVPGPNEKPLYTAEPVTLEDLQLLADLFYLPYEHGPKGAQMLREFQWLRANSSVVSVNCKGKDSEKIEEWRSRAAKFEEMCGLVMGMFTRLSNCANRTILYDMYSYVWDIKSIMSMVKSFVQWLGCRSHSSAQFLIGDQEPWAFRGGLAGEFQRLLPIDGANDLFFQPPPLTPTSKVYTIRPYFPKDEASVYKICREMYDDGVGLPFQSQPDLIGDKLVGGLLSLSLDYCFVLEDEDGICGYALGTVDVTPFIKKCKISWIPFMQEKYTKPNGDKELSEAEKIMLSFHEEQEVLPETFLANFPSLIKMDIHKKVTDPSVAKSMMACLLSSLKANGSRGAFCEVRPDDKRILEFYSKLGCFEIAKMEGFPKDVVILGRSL
Description: OGA Enzyme Inhibition Biochemical Assay
Recombinant full length human OGA enzyme was purchased from Origene. 4-MUGlCNAc substrate was purchased from Sigma. All other reagents were purchased from Sigma or Fisher. Assay buffer consists of the Mcllvaine buffer system, pH 6.4 (0.2M Na2HPO4 mixed with 0.1M citric acid) and 0.01% BSA. Reactions consist of 1 nM OGA, 100 μM 4-MUGlcNAc (Km), and compound in a final volume of 10 μl. Reactions were incubated for 90 minutes at room temperature and quenched with […] of 3M glycine, pH 10 and read on a Perkin Elmer Envision plate reader (Ex: 355 nm/Em: 460 nm). Compounds were tested with a 10-point dose-response starting from 20 μM with a 4-fold dilution. Data was fit using GraphPad Prism using a 4-parameter fit with variable slope.

| pIC50 | Molecule |
| --- | --- |
| 6.36 | CC(=O)Nc1ncc(CN2C[C@@H](Oc3ccc(C#N)cn3)[C@H]2C)s1 [Example 2-31, N-(5-(((2R,3R)-3-((5-cyanopyridin-2-yl)oxy)-2-methylazetidin-1-yl)methyl)thiazol-2-yl)acetamide] |
| 6.28 | CC(=O)Nc1ncc(CN2CC(Oc3ncc(F)cn3)C2)s1 [Example 2-2] |
| 6.24 | CC(=O)Nc1ncc(CN2C[C@@H](Oc3ncc(F)cn3)[C@H]2C)s1 [Example 2-29, N-(5-(((2R,3R)-3-((5-fluoropyrimidin-2-yl)oxy)-2-methylazetidin-1-yl)methyl)thiazol-2-yl)acetamide] |
| 7.48 | COc1cc(NC2CN(Cc3cnc(NC(C)=O)s3)C2)ccn1 [Example 2-12, N-(5-((3-((2-methoxypyridin-4-yl)amino)azetidin-1-yl)methyl)thiazol-2-yl)acetamide] |
| 6.77 | COc1cc(O[C@@H]2CN(Cc3cnc(NC(C)=O)s3)[C@@H]2C)ccn1 [Example 2-6, N-(5-(((2R,3R)-3-((2-methoxypyridin-4-yl)oxy)-2-methylazetidin-1-yl)methyl)thiazol-2-yl)acetamide] |
| 6.47 | CC(=O)Nc1ncc(CN2CC(Oc3ccc(C#N)cn3)C2)s1 [Example 2-5, N-(5-((3-((5-cyanopyridin-2-yl)oxy)azetidin-1-yl)methyl)thiazol-2-yl)acetamide] |
| 6.96 | COc1cc(O[C@@H]2CN(Cc3cnc(NC(C)=O)s3)[C@@H]2C)ncn1 [Example 2-28, N-(5-(((2R,3R)-3-((6-methoxypyrimidin-4-yl)oxy)-2-methylazetidin-1-yl)methyl)thiazol-2-yl)acetamide] |
| 7.96 | COc1cc(N[C@H]2CN(Cc3cnc(NC(C)=O)s3)[C@@H]2C)ccn1 [Example 2-17, N-(5-(((2R,3S)-3-((2-methoxypyridin-4-yl)amino)-2-methylazetidin-1-yl)methyl)thiazol-2-yl)acetamide] |
| < 7.70 | CC(=O)Nc1ncc(CN2CC(Oc3ncccc3C)C2)s1 [Example 2-4, N-(5-((3-((3-methylpyridin-2-yl)oxy)azetidin-1-yl)methyl)thiazol-2-yl)acetamide] |
| 7.04 | COc1cc(COC2CN(Cc3cnc(NC(C)=O)s3)C2)ccn1 [Example 1-1, N-(5-((3-((2-methoxypyridin-4-yl)methoxy)azetidin-1-yl)methyl)thiazol-2-yl)acetamide] |
| 6.10 | CC(=O)Nc1ncc(CN2C[C@@H](Nc3ccc(F)cn3)[C@H]2C)s1 [Example 2-15, N-(5-(((2R,3R)-3-((5-fluoropyridin-2-yl)amino)-2-methylazetidin-1-yl)methyl)thiazol-2-yl)acetamide] |
| 5.89 | CC(=O)Nc1ncc(CN2CC(COc3cc(C)nc(C)n3)C2)s1 [Example 2-21, N-(5-((3-(((2,6-dimethylpyrimidin-4-yl)oxy)methyl)azetidin-1-yl)methyl)thiazol-2-yl)acetamide] |
| 7.23 | CC(=O)Nc1ncc(CN2CC(Nc3ccc(C#N)cn3)C2)s1 [Example 2-13, N-(5-((3-((5-cyanopyridin-2-yl)amino)azetidin-1-yl)methyl)thiazol-2-yl)acetamide] |
| 6.32 | CC(=O)Nc1ncc(CN2CC(OCc3cc(C)nc(C)c3)C2)s1 [Example 1-2, N-(5-((3-((2,6-dimethylpyridin-4-yl)methoxy)azetidin-1-yl)methyl)thiazol-2-yl)acetamide] |
| 6.89 | CC(=O)Nc1ncc(CN2CC(Nc3ccc(F)cn3)C2)s1 [Example 2-14, N-(5-((3-((5-fluoropyridin-2-yl)amino)azetidin-1-yl)methyl)thiazol-2-yl)acetamide] |
| 6.80 | COc1cc(OC2CN(Cc3cnc(NC(C)=O)s3)C2)ccn1 [Example 2-3, N-(5-((3-((2-methoxypyridin-4-yl)oxy)azetidin-1-yl)methyl)thiazol-2-yl)acetamide] |
| 6.71 | CC(=O)Nc1ncc(CN2CC(c3ncnc4sccc34)C2)s1 [Example 5-2] |
| 6.22 | COc1cc(O[C@H]2CN(Cc3cnc(NC(C)=O)s3)[C@@H]2C)ncn1 [Example 2-27, N-(5-(((2R,3S)-3-((6-methoxypyrimidin-4-yl)oxy)-2-methylazetidin-1-yl)methyl)thiazol-2-yl)acetamide] |

| pIC50 | Molecule |
| --- | --- |
| 6.46 | CC(=O)Nc1ncc(CN2CC(c3ncc(F)cn3)C2)s1 [Example 5-1] |
| 6.68 | COc1cc(CNC2CN(Cc3cnc(NC(C)=O)s3)C2)ccn1 [Example 3-2, N-(5-((3-(((2-methoxypyridin-4-yl)methyl)amino)azetidin-1-yl)methyl)thiazol-2-yl)acetamide] |
| 6.39 | COc1cc(OC2CN(Cc3cnc(NC(C)=O)s3)C2)ncn1 [Example 2-1, N-(5-((3-((6-methoxypyrimidin-4-yl)oxy)azetidin-1-yl)methyl)thiazol-2-yl)acetamide] |
| 6.24 | COc1cc(N[C@@H]2CN(Cc3cnc(NC(C)=O)s3)[C@@H]2C)ccn1 [Example 2-16, N-(5-(((2R,3R)-3-((2-methoxypyridin-4-yl)amino)-2-methylazetidin-1-yl)methyl)thiazol-2-yl)acetamide] |
| 6.39 | COc1cc(NC2CN(Cc3cnc(NC(C)=O)s3)C2)ncn1 [Example 2-11] |
| 6.22 | COc1cc(O[C@@H]2CN(Cc3cnc(NC(C)=O)s3)[C@@H]2C)ncn1 (single isomer, unassigned) [Example 2-10] |
| 6.77 | CC(=O)Nc1ncc(CN2C[C@H](Oc3ncc(F)cn3)[C@H]2C)s1 [Example 2-30, N-(5-(((2R,3S)-3-((5-fluoropyrimidin-2-yl)oxy)-2-methylazetidin-1-yl)methyl)thiazol-2-yl)acetamide] |
| 6.17 | COc1cc(OCC2CN(Cc3cnc(NC(C)=O)s3)C2)ccn1 [Example 2-23, N-(5-((3-(((2-methoxypyridin-4-yl)oxy)methyl)azetidin-1-yl)methyl)thiazol-2-yl)acetamide] |
| 6.41 | CC(=O)Nc1ncc(CN2C[C@H](Oc3ncc(F)cn3)[C@H]2C)s1 [Example 2-33, N-(5-(((2R,3S)-3-((5-fluoropyrimidin-2-yl)oxy)-2-methylazetidin-1-yl)methyl)thiazol-2-yl)acetamide] |
| 5.85 | CC(=O)Nc1ncc(CN2CC(CNc3cc(C)nc(C)c3)C2)s1 [Example 2-24, N-(5-((3-(((2,6-dimethylpyridin-4-yl)amino)methyl)azetidin-1-yl)methyl)thiazol-2-yl)acetamide] |
| 7.60 | CC(=O)Nc1ncc(CN2C[C@H](Nc3ccc(C#N)cn3)[C@H]2C)s1 [Example 2-19, N-(5-(((2R,3S)-3-((5-cyanopyridin-2-yl)amino)-2-methylazetidin-1-yl)methyl)thiazol-2-yl)acetamide] |
| 5.82 | CC(=O)Nc1ncc(CN2CC(COc3ccc(F)cn3)C2)s1 [Example 2-22, N-(5-((3-(((5-fluoropyridin-2-yl)oxy)methyl)azetidin-1-yl)methyl)thiazol-2-yl)acetamide] |
| 7.04 | CC(=O)Nc1ncc(CN2CC(NCc3cc(C)nc(C)c3)C2)s1 [Example 3-1, N-(5-((3-(((2,6-dimethylpyridin-4-yl)methyl)amino)azetidin-1-yl)methyl)thiazol-2-yl)acetamide] |
| 5.89 | CC(=O)Nc1ncc(CN2CC(CNc3cc(C)nc(C)n3)C2)s1 [Example 2-26, N-(5-((3-(((2,6-dimethylpyrimidin-4-yl)amino)methyl)azetidin-1-yl)methyl)thiazol-2-yl)acetamide] |
| 6.77 | CC(=O)Nc1ncc(CN2C[C@H](Oc3ccc(F)cn3)[C@H]2C)s1 [Example 2-9, N-(5-(((2R,3S)-3-((5-fluoropyridin-2-yl)oxy)-2-methylazetidin-1-yl)methyl)thiazol-2-yl)acetamide] |
| 6.66 | CC(=O)Nc1ncc(CN2CC(OCc3noc(C)n3)C2)s1 [Example 1-3, N-(5-((3-((5-methyl-1,2,4-oxadiazol-3-yl)methoxy)azetidin-1-yl)methyl)thiazol-2-yl)acetamide] |
| 7.33 | CCOc1cc(CC2CN(Cc3cnc(NC(C)=O)s3)C2)ccn1 [Example 4-1, N-(5-((3-((2-ethoxypyridin-4-yl)methyl)azetidin-1-yl)methyl)thiazol-2-yl)acetamide] |

| Molecule | pIC50 |
| --- | --- |
| N-(5-43-(((5-methyl-1,2,4-oxadiazol-3-yl)methyl)amino)azetidin-1-yl)methyl)thiazol-2-yl)acetamide [Example 3-3] | 6.05 |
